Experimental data taken from patent US8912195B2, “Alkyl amides as HIV attachment inhibitors” (priority 2010, dated 2014).
Like-named read-outs stand apart in the source and are kept apart here.

System: single-round infectious reporter virus with HIV-1 LAI envelope
Assay: Single-round infectious HIV-1 LAI luciferase reporter virus infection of MT2 cells
Format: cell-based
Conditions: Human immunodeficiency virus 1, MT2, 72 h
From the text: • Virus production—Human embryonic Kidney cell line, 293T (HEK 293T), was propagated in Dulbecco's Modified Eagle Medium (Invitrogen, Carlsbad, Calif.) containing 10% fetal Bovine serum (FBS, Sigma, St. Louis, Mo.). The human T-cell leukemia cell MT2 (AIDS Research and Reference Reagent Program, Cat. 237) was propagated in RPMI 1640 (Invitrogen, Carlsbad, Calif.) containing 10% fetal bovine serum (FBS, Hyclone, Logan, Utah) • Virus infection—Single-round infectious reporter virus was produced by co-transfecting HEK 293T cells with plasmide expressing the HIV-1 LAI envelope along with a plasmid containing an HIV-1 LAI proviral cDNA with the envelope gene replaced by a firefly luciferase reporter gene (Chen et al, Ref 41). Transfections were performed using lipofectAMINE PLUS reagent as described by the manufacturer (Invitrogen, Carlsbad, Calif.).
• 1. MT2 cells were plated in black, 384 well plates at a cell density of 5×10^3 cells per well in 25 μl RPMI 1640 containing 10% FBS. • 2. Compound (diluted in dimethylsulfoxide and growth medium) was added to cells at 12.5 μl/well, so that the final assay concentration would be ≦50 nM. • 3. 12.5 μl of single-round infectious reporter virus in Dulbecco's Modified Eagle Medium was added to the plated cells and compound at an approximate multiplicity of infection (MOI) of 0.01, resulting in a final volume of 50 μl per well. • 4. Virus-infected cells were incubated at 37 degrees Celsius, in a CO2 incubator, and harvested 72 h after infection. • 5. Viral infection was monitored by measuring luciferase expression in the infected cells using a luciferase reporter gene assay kit (Steady-Glo, Promega, Madison, Wis.) as described by the manufacturer. Luciferase activity was then quantified by measuring luminescence using an EnVision Multilabel Plate Readers (PerkinElmer, Waltham, Mass.). • 6. The percent inhibition for each compound was calculated by quantifying the level of luciferase expression in cells infected in the presence of each compound as a percentage of that observed for cells infected in the absence of compound and subtracting such a determined value from 100. • 7. An EC50 provides a method for comparing the antiviral potency of the compounds of this disclosure. The effective concentration for fifty percent inhibition (EC50) was calculated with the Microsoft Excel Xlfit curve fitting software. For each compound, curves were generated from percent inhibition calculated at 10 different concentrations by using a four paramenter logistic model (model 205). Table 1 is the key for the data in Table 2.

[1] = read-out: EC50 Group from Table 1

Row | SMILES | EC50 [1] | EC50
1 | CC(C)CC(=O)N1CCN(C(=O)C(=O)c2c[nH]c3c(-n4ccnn4)ncc(F)c23)CC1 [Compound 1001, 1-(4-fluoro-7-(1H-1,2,3-triazol-1-yl)-1H-pyrrolo[2,3-c]pyridin-3-yl)-2-(4-(3-methylbutanoyl)piperazin-1-yl)ethane-1,2-dione] | < 500 nM | –
2 | COc1cnc(-n2ccnn2)c2[nH]cc(C(=O)C(=O)N3CCN(C(=O)C4CCCCC4)CC3)c12 [Compound 1002, 1-(4-(cyclohexanecarbonyl)piperazin-1-yl)-2-(4-methoxy-7-(1H-1,2,3-triazol-1-yl)-1H-pyrrolo[2,3-c]pyridin-3-yl)ethane-1,2-dione] | < 500 nM | –
3 | COc1cnc(-n2ccnn2)c2[nH]cc(C(=O)C(=O)N3CCN(C(=O)[C@]45C[C@H]6C[C@H](C[C@H](C6)C4)C5)CC3)c12 [Compound 1003] | < 500 nM | –
4 | COc1cnc(-n2ccnn2)c2[nH]cc(C(=O)C(=O)N3CCN(C(=O)C4CCCCCC4)CC3)c12 [Compound 1004, 1-(4-(cycloheptanecarbonyl)piperazin-1-yl)-2-(4-methoxy-7-(1H-1,2,3-triazol-1-yl)-1H-pyrrolo[2,3-c]pyridin-3-yl)ethane-1,2-dione] | < 500 nM | 0.14 nM
5 | CC1CCCC(C(=O)N2CCN(C(=O)C(=O)c3c[nH]c4c(-n5ccnn5)ncc(F)c34)CC2)C1 (stereo not shown) [Compound 2001] | < 500 nM | –
6 | O=C(C(=O)N1CCN(C(=O)C2CCCO2)CC1)c1c[nH]c2c(-n3ccnn3)ncc(F)c12 (stereo not shown) [Compound 2002] | < 500 nM | –
7 | CC1CCCCC1C(=O)N1CCN(C(=O)C(=O)c2c[nH]c3c(-n4ccnn4)ncc(F)c23)CC1 (stereo not shown) [Compound 2003] | < 500 nM | –
8 | O=C(C(=O)N1CCN(C(=O)C23CC4CC(CC2C4)C3)CC1)c1c[nH]c2c(-n3ccnn3)ncc(F)c12 [Compound 2004] | < 500 nM | 1.15 nM
9 | O=C(C(=O)N1CCN(C(=O)C2CCCCCC2)CC1)c1c[nH]c2c(-n3ccnn3)ncc(F)c12 [Compound 2005] | < 500 nM | 0.36 nM
10 | N[C@H]1CCCC[C@@H]1C(=O)N1CCN(C(=O)C(=O)c2c[nH]c3c(-n4ccnn4)ncc(F)c23)CC1 [Compound 2006] | > 500 nM | –
11 | C[C@]1(C(=O)N2CCN(C(=O)C(=O)c3c[nH]c4c(-n5ccnn5)ncc(F)c34)CC2)CCCN1 [Compound 2007] | > 500 nM | –
12 | O=C(C(=O)N1CCN(C(=O)C2CC3CCC2C(O)C3)CC1)c1c[nH]c2c(-n3ccnn3)ncc(F)c12 (stereo not shown) [Compound 2008] | < 500 nM | 5.1 nM
13 | CC(C)(C)C1CCC(C(=O)N2CCN(C(=O)C(=O)c3c[nH]c4c(-n5ccnn5)ncc(F)c34)CC2)CC1 (stereo not shown) [Compound 2009] | > 500 nM | –
14 | O=C(C(=O)N1CCN(C(=O)C2C[C@H]3C[C@@H]2CCC3O)CC1)c1c[nH]c2c(-n3ccnn3)ncc(F)c12 (stereo partly shown) [Compound 2010] | < 500 nM | –
15 | CC(C)=C[C@@H]1[C@@H](C(=O)N2CCN(C(=O)C(=O)c3c[nH]c4c(-n5ccnn5)ncc(F)c34)CC2)C1(C)C [Compound 2011] | > 500 nM | –
16 | C[C@H]1CC[C@H](C(=O)N2CCN(C(=O)C(=O)c3c[nH]c4c(-n5ccnn5)ncc(F)c34)CC2)CC1 [Compound 2012] | < 500 nM | –
17 | NC1(C(=O)N2CCN(C(=O)C(=O)c3c[nH]c4c(-n5ccnn5)ncc(F)c34)CC2)CCCC1 [Compound 2013] | < 500 nM | 451 nM
18 | O=C(C(=O)N1CCN(C(=O)C2CCOCC2)CC1)c1c[nH]c2c(-n3ccnn3)ncc(F)c12 [Compound 2014] | < 500 nM | 12.5 nM
19 | O=C(C(=O)N1CCN(C(=O)C2CCOC2)CC1)c1c[nH]c2c(-n3ccnn3)ncc(F)c12 (stereo not shown) [Compound 2015] | < 500 nM | –
20 | O=C(C(=O)N1CCN(C(=O)C23CC4CC(CC(C4)C2)C3)CC1)c1c[nH]c2c(-n3ccnn3)ncc(F)c12 [Compound 2016] | < 500 nM | –
21 | O=C(C(=O)N1CCN(C(=O)C2CCCCC2)CC1)c1c[nH]c2c(-n3ccnn3)ncc(F)c12 [Compound 2017] | < 500 nM | 0.11 nM
22 | O=C(C(=O)N1CCN(C(=O)C2CCC(O)CC2)CC1)c1c[nH]c2c(-n3ccnn3)ncc(F)c12 (stereo not shown) [Compound 2018] | < 500 nM | –
23 | O=C(C(=O)N1CCN(C(=O)[C@H](O)c2ccccc2)CC1)c1c[nH]c2c(-n3ccnn3)ncc(F)c12 [Compound 2019] | < 500 nM | 344 nM
24 | CN1CCC(C(=O)N2CCN(C(=O)C(=O)c3c[nH]c4c(-n5ccnn5)ncc(F)c34)CC2)CC1 [Compound 2020] | > 500 nM | –
25 | CN1CCCC(C(=O)N2CCN(C(=O)C(=O)c3c[nH]c4c(-n5ccnn5)ncc(F)c34)CC2)C1 (stereo not shown) [Compound 2021] | < 500 nM | 76.9 nM

Row | SMILES | EC50 [1] | EC50
26 | O=C(C(=O)N1CCN(C(=O)C2CCC(F)(F)CC2)CC1)c1c[nH]c2c(-n3ccnn3)ncc(F)c12 [Compound 2022] | < 500 nM | –
27 | O=C(C(=O)N1CCN(C(=O)[C@@H](O)c2ccccc2)CC1)c1c[nH]c2c(-n3ccnn3)ncc(F)c12 [Compound 2023] | < 500 nM | –
28 | O=C(C(=O)N1CCN(C(=O)C2CCCOC2)CC1)c1c[nH]c2c(-n3ccnn3)ncc(F)c12 (stereo not shown) [Compound 2024] | < 500 nM | –
29 | CC1(C)CC(C(=O)N2CCN(C(=O)C(=O)c3c[nH]c4c(-n5ccnn5)ncc(F)c34)CC2)CC(C)(C)N1 [Compound 2025] | > 500 nM | –
30 | CC(C)(C)OC(=O)N[C@@H](C(=O)N1CCN(C(=O)C(=O)c2c[nH]c3c(-n4ccnn4)ncc(F)c23)CC1)c1ccccc1 [Compound 2026] | > 500 nM | –
31 | CC[C@@]12CC3C[C@@](O)(C1)C[C@](C(=O)N1CCN(C(=O)C(=O)c4c[nH]c5c(-n6ccnn6)ncc(F)c45)CC1)(C3)C2 [Compound 2027] | < 500 nM | –
32 | O=CN1CCCC(C(=O)N2CCN(C(=O)C(=O)c3c[nH]c4c(-n5ccnn5)ncc(F)c34)CC2)C1 (stereo not shown) [Compound 2028] | < 500 nM | 25.5 nM
33 | CN1CCCCC1C(=O)N1CCN(C(=O)C(=O)c2c[nH]c3c(-n4ccnn4)ncc(F)c23)CC1 (stereo not shown) [Compound 2029] | > 500 nM | –
34 | CN1CCC[C@H]1C(=O)N1CCN(C(=O)C(=O)c2c[nH]c3c(-n4ccnn4)ncc(F)c23)CC1 [Compound 2030] | > 500 nM | –
35 | CC(C)(C)OC(=O)N[C@H](C(=O)N1CCN(C(=O)C(=O)c2c[nH]c3c(-n4ccnn4)ncc(F)c23)CC1)c1ccccc1 [Compound 2031] | > 500 nM | –
36 | C[C@]12C[C@]3(C)C[C@](N)(C1)C[C@](C(=O)N1CCN(C(=O)C(=O)c4c[nH]c5c(-n6ccnn6)ncc(F)c45)CC1)(C2)C3 [Compound 2032] | > 500 nM | –
37 | CC(C)(C)OC(=O)N1CCC(C(=O)N2CCN(C(=O)C(=O)c3c[nH]c4c(-n5ccnn5)ncc(F)c34)CC2)C1 (stereo not shown) [Compound 2033] | > 500 nM | –
38 | CC(C)(C)OC(=O)N1CCCC(C(=O)N2CCN(C(=O)C(=O)c3c[nH]c4c(-n5ccnn5)ncc(F)c34)CC2)C1 (stereo not shown) [Compound 2034] | > 500 nM | –
39 | CC(C)(C)OC(=O)N1CCC(C(=O)N2CCN(C(=O)C(=O)c3c[nH]c4c(-n5ccnn5)ncc(F)c34)CC2)CC1 [Compound 2035] | > 500 nM | –
40 | CN(C)[C@@H](C(=O)N1CCN(C(=O)C(=O)c2c[nH]c3c(-n4ccnn4)ncc(F)c23)CC1)c1ccccc1 [Compound 2036] | > 500 nM | –
41 | CN(C)[C@H](C(=O)N1CCN(C(=O)C(=O)c2c[nH]c3c(-n4ccnn4)ncc(F)c23)CC1)c1ccccc1 [Compound 2037] | > 500 nM | –
42 | O=C(C(=O)N1CCN(C(=O)C2CC2)CC1)c1c[nH]c2c(-n3ccnn3)ncc(F)c12 [Compound 2038] | < 500 nM | –
43 | CC(C)C(=O)N1CCN(C(=O)C(=O)c2c[nH]c3c(-n4ccnn4)ncc(F)c23)CC1 [Compound 2039] | < 500 nM | –
44 | CCCCCC(=O)N1CCN(C(=O)C(=O)c2c[nH]c3c(-n4cnc(C)n4)ncc(OC)c23)CC1 [Compound 2040] | < 500 nM | –
45 | COc1cnc(-n2cnc(C)n2)c2[nH]cc(C(=O)C(=O)N3CCN(C(=O)CCC4CCCC4)CC3)c12 [Compound 2041] | < 500 nM | –
46 | CCCCCC(=O)N1CCN(C(=O)C(=O)c2c[nH]c3c(-n4ccnn4)ncc(F)c23)CC1 [Compound 2042] | < 500 nM | –
47 | O=C(C(=O)N1CCN(C(=O)CCC2CCCC2)CC1)c1c[nH]c2c(-n3ccnn3)ncc(F)c12 [Compound 2043] | < 500 nM | –
48 | COCC(=O)N1CCN(C(=O)C(=O)c2c[nH]c3c(-n4ccnn4)ncc(F)c23)CC1 [Compound 2044] | < 500 nM | –
49 | CN(C)CC(=O)N1CCN(C(=O)C(=O)c2c[nH]c3c(-n4ccnn4)ncc(F)c23)CC1 [Compound 2045] | > 500 nM | –
50 | CCC(=O)N1CCN(C(=O)C(=O)c2c[nH]c3c(-n4ccnn4)ncc(F)c23)CC1 [Compound 2046] | < 500 nM | 6.88 nM
